Laboratory results as given in US20190367516A1 (Bayer Pharma Aktiengesellschaft, priority 2015, published 2019).
Like-named read-outs stand apart in the source and are kept apart here.

Molecular target: T1, human M2 receptor (Homo sapiens, UniProt P08172)
T1 sequence (P08172 1-466): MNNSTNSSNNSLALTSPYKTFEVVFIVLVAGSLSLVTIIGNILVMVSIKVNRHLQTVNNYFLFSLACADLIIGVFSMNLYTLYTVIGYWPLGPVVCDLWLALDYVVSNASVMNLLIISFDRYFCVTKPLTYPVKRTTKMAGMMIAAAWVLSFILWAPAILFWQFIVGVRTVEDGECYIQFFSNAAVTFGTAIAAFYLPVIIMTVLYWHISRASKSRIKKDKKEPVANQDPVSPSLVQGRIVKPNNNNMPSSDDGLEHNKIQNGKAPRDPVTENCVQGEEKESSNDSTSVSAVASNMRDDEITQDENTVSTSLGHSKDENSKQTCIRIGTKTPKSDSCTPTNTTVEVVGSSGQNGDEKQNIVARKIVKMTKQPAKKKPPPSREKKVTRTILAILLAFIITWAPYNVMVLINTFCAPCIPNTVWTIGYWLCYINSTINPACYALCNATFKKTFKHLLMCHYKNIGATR

[1] = Receptor activity EC50, M2-GIRK1/4 activation test, acetylcholine at EC20, allosteric potency, in some cases mean values from two or more determinations
[2] = Receptor activity EC50, allosteric potency at EC20 acetylcholine, M2-GIRK1/4 reporter cells, in some cases mean of two or more determinations
[3] = read-out: Efficiency, boosting of the acetylcholine effect at EC20 acetylcholine concentration, M2-GIRK1/4 reporter cells

Row | SMILES | EC50 [1] [nM] | further results
1 | Cc1ccc(C(NC(=O)c2cn(-c3ccc(F)cc3F)c3nc(N(C)C)ccc3c2=O)C(F)(F)F)cc1 (racemic) [Example 141, rac-1-(2,4-Difluorophenyl)-7-(dimethylamino)-4-oxo-N-[2,2,2-trifluoro-1-(4-methylphenyl)ethyl]-1,4-dihydro-1,8-naphthyridine-3-carboxamide] | 83 | –
2 | Cc1ccccc1C(NC(=O)c1cn(-c2ccc(F)cc2F)c2nc(N(C)C)ccc2c1=O)C(F)(F)F (racemic) [Example 142, rac-1-(2,4-Difluorophenyl)-7-(dimethylamino)-4-oxo-N-[2,2,2-trifluoro-1-(2-methylphenyl)ethyl]-1,4-dihydro-1,8-naphthyridine-3-carboxamide] | 110 | –
3 | CN(C)c1ccc2c(=O)c(C(=O)NC(Cc3ccccc3)C(F)(F)F)cn(-c3ccc(F)cc3F)c2n1 (racemic) [Example 143, rac-1-(2,4-Difluorophenyl)-7-(dimethylamino)-4-oxo-N-(1,1,1-trifluoro-3-phenylpropan-2-yl)-1,4-dihydro-1,8-naphthyridine-3-carboxamide] | 37 | –
4 | CCCC(NC(=O)c1cn(-c2ccc(F)cc2F)c2nc(N(C)C)ccc2c1=O)C(F)(F)F (racemic) [Example 144, rac-1-(2,4-Difluorophenyl)-7-(dimethylamino)-4-oxo-N-(1,1,1-trifluoropentan-2-yl)-1,4-dihydro-1,8-naphthyridine-3-carboxamide] | 32 | –
5 | CC(C)CC(NC(=O)c1cn(-c2ccc(F)cc2F)c2nc(N(C)C)ccc2c1=O)C(F)(F)F (racemic) [Example 145, rac-1-(2,4-Difluorophenyl)-7-(dimethylamino)-4-oxo-N-(1,1,1-trifluoro-4-methylpentan-2-yl)-1,4-dihydro-1,8-naphthyridine-3-carboxamide] | 30 | –
6 | CCC(NC(=O)c1cn(-c2ccc(F)cc2F)c2nc(N(C)C)ccc2c1=O)C(F)(F)F (racemic) [Example 146, rac-1-(2,4-Difluorophenyl)-7-(dimethylamino)-4-oxo-N-(1,1,1-trifluorobutan-2-yl)-1,4-dihydro-1,8-naphthyridine-3-carboxamide] | 26 | –
7 | CC(NC(=O)c1cn(-c2ccc(F)cc2F)c2nc(N(C)C)ccc2c1=O)C(F)(F)F (racemic) [Example 147, rac-1-(2,4-Difluorophenyl)-7-(dimethylamino)-4-oxo-N-(1,1,1-trifluoropropan-2-yl)-1,4-dihydro-1,8-naphthyridine-3-carboxamide] | 82 | –
8 | CN(C)c1ccc2c(=O)c(C(=O)NC(C3CC3)C(F)(F)F)cn(-c3ccc(F)cc3F)c2n1 (racemic) [Example 148, rac-N-(1-Cyclopropyl-2,2,2-trifluoroethyl)-1-(2,4-difluorophenyl)-7-(dimethylamino)-4-oxo-1,4-dihydro-1,8-naphthyridine-3-carboxamide] | 41 | –
9 | CC(C)C(NC(=O)c1cn(-c2ccc(F)cc2F)c2nc(N(C)C)ccc2c1=O)C(F)(F)F (racemic) [Example 150, rac-1-(2,4-Difluorophenyl)-7-(dimethylamino)-4-oxo-N-(1,1,1-trifluoro-3-methylbutan-2-yl)-1,4-dihydro-1,8-naphthyridine-3-carboxamide] | 72 | –
10 | CC(COC(F)(F)F)NC(=O)c1cn(-c2ccc(F)cc2F)c2nc(N3CCCC3=O)ccc2c1=O (racemic) [Example 230, rac-1-(2,4-Difluorophenyl)-4-oxo-7-(2-oxopyrrolidin-1-yl)-N-[1-(trifluoromethoxy)propan-2-yl]-1,4-dihydro-1,8-naphthyridine-3-carboxamide] | 203 | –
11 | O=C(NC(c1c(F)cccc1F)C(F)(F)F)c1cn(-c2ccc(F)cc2F)c2nc(N3CCC(O)CC3=O)ccc2c1=O (racemic) [Example 252, rac-1-(2,4-Difluorophenyl)-N-[1-(2,6-difluorophenyl)-2,2,2-trifluoroethyl]-7-[4-hydroxy-2-oxopiperidin-1-yl]-4-oxo-1,4-dihydro-1,8-naphthyridine-3-carboxamide] | 109 | –
12 | CC[C@@H](NC(=O)c1cn(-c2c(F)cccc2F)c2nc(N3CC(CO)OC3=O)ccc2c1=O)C(F)(F)F (mixture of isomers) [Example 260, rac-1-(2,6-Difluorophenyl)-7-[5-(hydroxymethyl)-2-oxo-1,3-oxazolidin-3-yl]-4-oxo-N-[(2R)-1,1,1-trifluorobutan-2-yl]-1,4-dihydro-1,8-naphthyridine-3-carboxamide] | 280 | –
13 | CC[C@H](NC(=O)c1cn(-c2c(F)cc(F)cc2Cl)c2nc(N3CC4CC4(O)C3)ccc2c1=O)C(F)(F)F (mixture of isomers) [Example 413, 1-(2-Chloro-4,6-difluorophenyl)-7-[1-hydroxy-3-azabicyclo[3.1.0]hex-3-yl]-4-oxo-N-[(2S)-1,1,1-trifluorobutan-2-yl]-1,4-dihydro-1,8-naphthyridine-3-carboxamide] | – | EC50 [2]: 10 nM; Emax [3]: 100%
14 | O=C(N[C@H](C1CC1)C(F)(F)F)c1cn(-c2c(F)cc(F)cc2Cl)c2nc(N3CC4CC4(O)C3)ccc2c1=O (mixture of isomers) [Example 415, 1-(2-Chloro-4,6-difluorophenyl)-N-[(1R)-1-cyclopropyl-2,2,2-trifluoroethyl]-7-[1-hydroxy-3-azabicyclo[3.1.0]hex-3-yl]-4-oxo-1,4-dihydro-1,8-naphthyridine-3-carboxamide] | – | EC50 [2]: 6 nM; Emax [3]: 96%
15 | CC[C@H](NC(=O)c1cn(-c2c(F)cc(F)cc2F)c2nc(N3CC4CC4(O)C3)ccc2c1=O)C(F)(F)F (mixture of isomers) [Example 416, 7-[1-Hydroxy-3-azabicyclo[3.1.0]hex-3-yl]-4-oxo-N-[(2S)-1,1,1-trifluorobutan-2-yl]-1-(2,4,6-trifluorophenyl)-1,4-dihydro-1,8-naphthyridine-3-carboxamide] | – | EC50 [2]: 8 nM; Emax (read-out: Efficiency): 92%
16 | CC[C@H](NC(=O)c1cn(-c2c(F)cccc2F)c2nc(N3CC4CC4(O)C3)ccc2c1=O)C(F)(F)F (mixture of isomers) [Example 417, 1-(2,6-Difluorophenyl)-7-[1-hydroxy-3-azabicyclo[3.1.0]hex-3-yl]-4-oxo-N-[(2S)-1,1,1-trifluorobutan-2-yl]-1,4-dihydro-1,8-naphthyridine-3-carboxamide] | – | EC50 [2]: 24 nM; Emax [3]: 100%
17 | CC[C@@H](NC(=O)c1cn(-c2ccc(F)cc2F)c2nc(N3C(=O)CCC3C)ccc2c1=O)C(F)(F)F (mixture of isomers) [Example 426, 1-(2,4-Difluorophenyl)-7-[2-methyl-5-oxopyrrolidin-1-yl]-4-oxo-N-[(2R)-1,1,1-trifluorobutan-2-yl]-1,4-dihydro-1,8-naphthyridine-3-carboxamide] | – | EC50 [2]: 48 nM; Emax [3]: 92%
18 | CC1CC(=O)N(c2ccc3c(=O)c(C(=O)N[C@@H](C4CC4)C(F)(F)F)cn(-c4c(F)cc(F)cc4Cl)c3n2)C1 (mixture of isomers) [Example 429, 1-(2-Chloro-4,6-difluorophenyl)-N-[(1 S)-1-cyclopropyl-2,2,2-trifluoroethyl]-7-[4-methyl-2-oxopyrrolidin-1-yl]-4-oxo-1,4-dihydro-1,8-naphthyridine-3-carboxamide] | – | EC50 [2]: 16 nM; Emax [3]: 99%

Second part, led by results:

Row | EC50 [1] [nM] | SMILES | further results
19 | 440 | CC[C@@H](NC(=O)c1cn(-c2ccc(F)cc2F)c2nc(N3CCOC(C(F)F)C3)ccc2c1=O)C(F)(F)F (mixture of isomers) [Example 263, 7-[2-(Difluoromethyl)morpholin-4-yl]-1-(2,4-difluorophenyl)-4-oxo-N-[(2R)-1,1,1-trifluorobutan-2-yl]-1,4-dihydro-1,8-naphthyridine-3-carboxamide] | –
20 | 40 | O=C(NC(C1CC1)C(F)(F)F)c1cn(-c2ccc(F)cc2F)c2nc(N3C[C@@H](O)CC3=O)ccc2c1=O (mixture of isomers) [Example 283] | –
21 | 59 | CC[C@@H](NC(=O)c1cn(-c2c(F)cccc2F)c2nc(N3CCC(O)C3=O)ccc2c1=O)C(F)(F)F (mixture of isomers) [Example 292, 1-(2,6-Difluorophenyl)-7-[3-hydroxy-2-oxopyrrolidin-1-yl]-4-oxo-N-[(2R)-1,1,1-trifluorobutan-2-yl]-1,4-dihydro-1,8-naphthyridine-3-carboxamide] | –
22 | 28 | C[C@H](NC(=O)c1cn(-c2c(F)cc(F)cc2F)c2nc(N3CC4CC4(O)C3)ccc2c1=O)C(F)(F)F (mixture of isomers) [Example 316, 7-[1-Hydroxy-3-azabicyclo[3.1.0]hex-3-yl]-4-oxo-1-(2,4,6-trifluorophenyl)-N-[(2S)-1,1,1-trifluoropropan-2-yl]-1,4-dihydro-1,8-naphthyridine-3-carboxamide] | –
23 | 25 | O=C(N[C@H](C1CC1)C(F)(F)F)c1cn(-c2c(F)cccc2F)c2nc(N3CC4CC4(O)C3)ccc2c1=O (mixture of isomers) [Example 319, N-[(1R)-1-Cyclopropyl-2,2,2-trifluoroethyl]-1-(2,6-difluorophenyl)-7-[1-hydroxy-3-azabicyclo[3.1.0]hex-3-yl]-4-oxo-1,4-dihydro-1,8-naphthyridine-3-carboxamide] | –
24 | 47 | CC1(O)CCN(c2ccc3c(=O)c(C(=O)NC(C4CC4)C(F)(F)F)cn(-c4c(F)cccc4F)c3n2)C1 (racemic) [Example 326, N-[1-Cyclopropyl-2,2,2-trifluoroethyl]-1-(2,6-difluorophenyl)-7-[3-hydroxy-3-methylpyrrolidin-1-yl]-4-oxo-1,4-dihydro-1,8-naphthyridine-3-carboxamide] | –
